Data: publication PMC5562305, “Impact of novel palmitoylated prolactin-releasing peptide analogs on metabolic changes in mice with diet-induced obesity” (PLoS ONE, 2017)
Starred links: 1 amine or outer side, 2 acyl side, 3 side chain; linkers in the order of their positions; H or OH if unused. Residues, ends and D or L forms follow the SMILES beside them. Groups on a side chain read outwards from the residue. *: point of attachment. TTDA(Palmitoyl) = CCCCCCCCCCCCCCCC(=O)NCCCOCCOCCOCCCN*; Suc = O=C(CCC(=O)[*:2])[*:1]

System: urinary metabolites
Experiment: NMR-based metabolomics of urine of DIO mice
Format: in vivo, C57BL/6 mice
Set-up: key to DMA, Mean / DMG, Mean / MA, Mean / TMA, Mean / acetate, Mean / allantoin, Mean / carnitine, Mean / choline, Mean / cis-aconitate, Mean / creatine+creatinine, Mean / creatine, Mean / creatinine, Mean / ethanolamine, Mean / formate, Mean / galactose, Mean / glucose, Mean / glycine, Mean / lactate, Mean / succinate, Mean / vinylacetylglycine, Mean: TSA-normalized intensity of the metabolite's representative NMR signal
Details: urine of DIO mice, NMR metabolomics
Procedure: Urine samples for NMR-based metabolomics were collected prior to the start of the interventions and at the end of the experiment. For overnight urine collection (from 5 pm to 8 am), the mice were housed in individual metabolic cages (Tecniplast, Buguggiate, Italy) without access to food. Samples were collected with the addition of NaN3 and stored at -80°C until NMR analysis.
The urine samples were thawed at room temperature and centrifuged at 13 684 x g for 5 min prior to the NMR experiments. A 200-μl aliquot of supernatant was diluted with 340 μl of H2O mixed with 60 μl of phosphate buffer (1.5 M KH2PO4 in D2O containing 2 mM NaN3 and 0.1% trimethylsilyl propionic acid (TSP), pH 7.4) and transferred to a 5-mm NMR tube. The NMR data were acquired with a 600 MHz Bruker Avance III spectrometer (Bruker BioSpin, Rheinstetten, Germany) equipped with a 5-mm TCI cryogenic probe head. All of the experiments were performed at 300 K. Automatic tuning, matching, shimming and adjusting of the 90° pulse length were performed for each sample.
As mouse urine naturally contains urinary proteins, the NMR spectra were acquired using a Carr-Purcell-Meiboom-Gill (CPMG) pulse sequence with water presaturation (Bruker pulse sequence cpmgpr1d) to eliminate the strong protein background. […] For better metabolite identification, a short J-resolved experiment with presaturation (NS = 2, SW = 16 ppm, TD = 8k, number of increments = 40, SW = 78.125 Hz in the indirect dimension, and relaxation delay = 2 s) was executed for all samples. Additional two-dimensional ^1H-^1H correlation spectroscopy (COSY) and ^1H-^13C heteronuclear multiple-quantum correlation (HMQC) experiments (Bruker pulse sequences cosygpprqf and hmqcphpr) were performed for selected samples.
The acquired data were processed using Topspin 3.2 software (Bruker BioSpin, Rheinstetten, Germany). Line broadening of 0.3 Hz was applied on free induction decays (FIDs) prior to Fourier transformation. The spectra were automatically phased, baseline corrected and referenced to the signal of TSP (0.00 ppm).
The assignment of individual metabolites was achieved by comparing the proton spectra with the spectra of pure metabolites using Chenomx NMR Suite 7.6 (Chenomx Inc., Edmonton, AB, Canada), the HMDB database and previously published metabolomic data. The identification of metabolites was supported through J-resolved and COSY experiments and, if possible, confirmed using carbon chemical shifts extracted from the HMQC spectra.
For quantitation of individual metabolites, the CPMG spectra were uniformly binned in the range of 0.10–10.00 ppm to 0.01-ppm intervals using AMIX software (Bruker BioSpin, Rheinstetten, Germany). This procedure reduced the dimensionality of the data, eliminated chemical shift variations and thus simplified the reproducible automatic quantification. Regions corresponding to water (4.60–4.90 ppm) and urea (5.60–6.00 ppm) were removed prior to analysis. As the dilutions of the original urine samples differed (due to the differences in water intake during urine collection), all of the spectra were normalized to the total spectral area (TSA). For each identified metabolite, one representative signal was chosen and then quantified as the sum of appropriate adjacent 0.01-ppm bins to cover the whole signal width. The metabolite concentration was expressed as the TSA-normalized intensity of the respective signal. For selection of an appropriate statistical method (parametric or non-parametric) the Lilliefors test of normality was performed. […] Metabolite alterations with a P < 0.05 were considered statistically significant. Statistical analysis was performed using Matlab software (“MATLAB version 8.6 (R2015b). Natick, Massachusetts: The MathWorks Inc., 2015.,” n.d.). […]

[1] = difference of analog mean vs saline mean

CCCCCCCCCCCCCCCC(=O)NCCCOCCOCCOCCCNC(=O)CCC(=O)NCCCC[C@H](NC(=O)[C@@H](NC(=O)[C@H](CCC(=O)O)NC(=O)[C@H](CCSC)NC(=O)[C@H](CO)NC(=O)[C@H](Cc1c[nH]cn1)NC(=O)[C@H](CCCNC(=N)N)NC(=O)[C@H](Cc1c[nH]cn1)NC(=O)[C@@H](NC(=O)[C@H](CCCNC(=N)N)NC(=O)[C@@H](N)CO)[C@@H](C)O)[C@@H](C)CC)C(=O)N[C@H](C(=O)N1CCC[C@H]1C(=O)N[C@@H](CC(=O)O)C(=O)N[C@H](C(=O)N[C@@H](CC(N)=O)C(=O)N1CCC[C@H]1C(=O)N[C@@H](C)C(=O)N[C@@H](Cc1c[nH]c2ccccc12)C(=O)N[C@@H](Cc1ccc(O)cc1)C(=O)N[C@@H](C)C(=O)N[C@@H](CO)C(=O)N[C@@H](CCCNC(=N)N)C(=O)NCC(=O)N[C@H](C(=O)N[C@@H](CCCNC(=N)N)C(=O)N1CCC[C@H]1C(=O)N[C@H](C(=O)NCC(=O)N[C@@H](CCCNC(=N)N)C(=O)N[C@@H](Cc1ccccc1)C(N)=O)C(C)C)[C@@H](C)CC)[C@@H](C)CC)[C@@H](C)O [analog 2] (H-SRTHRHSMEIK([Suc-TTDA(Palmitoyl)])TPDINPAWYASRGIRPVGRF-NH2; N-terminus assumed)
creatine, Saline/analog % [1]: -0.033% | creatinine, Saline/analog % [1]: 0.035% | ethanolamine, Saline/analog % [1]: -0.025% | formate, Saline/analog % [1]: 0.032% | fumarate, Saline/analog % [1]: -0.055% | galactose, Saline/analog % [1]: 0.041% | glucose, Saline/analog % [1]: -0.039% | glycine, Saline/analog % [1]: 0.016% | hexanoylglycine + acids (0.88 ppm), Saline/analog % [1]: 0.157% | hippurate (7.55 ppm), Saline/analog % [1]: 0.047% | hippurate (7.64 ppm), Saline/analog % [1]: 0.039% | hippurate (7.84 ppm), Saline/analog % [1]: 0.035% | lactate, Saline/analog % [1]: 0.156% | multiplet acids (1.6 ppm), Saline/analog % [1]: 0.157% | putrescin, Saline/analog % [1]: -0.042% | succinate, Saline/analog % [1]: 0.163% | taurine (3.27 ppm), Saline/analog % [1]: -0.196% | taurine (3.43 ppm), Saline/analog % [1]: -0.239% | trigonelline (8.84 ppm), Saline/analog % [1]: -0.008% | trigonelline (9.13 ppm), Saline/analog % [1]: -0.024% | vinylacetylglycine, Saline/analog % [1]: 0.163% | 2-OG (2.45 ppm), Mean (group mean): 11.956 | 2-OG (3.01 ppm), Mean (group mean): 10.103 | 2-PY (8.33 ppm), Mean (group mean): 0.992 | 3-indoxylsulfate (7.51 ppm), Mean (group mean): 1.459 | 3-indoxylsulfate (7.71 ppm), Mean (group mean): 0.842 | 4-PY (7.97 ppm), Mean (group mean): 1.710 | 4-PY (8.55 ppm), Mean (group mean): 0.484 | DMA, Mean (group mean): 5.145 | DMG, Mean (group mean): 1.928 | MA, Mean (group mean): 2.920 | MNA (8.90 ppm), Mean (group mean): 0.407 | MNA (8.97 ppm), Mean (group mean): 0.391 | MNA (9.265 ppm), Mean (group mean): 0.413 | MNA-Nox (7.75 ppm), Mean (group mean): 0.969 | MNA-Nox (8.13 ppm), Mean (group mean): 0.725 | MNA-Nox (8.49 ppm), Mean (group mean): 0.458 | MNA-Nox (8.75 ppm), Mean (group mean): 0.434 | N-carbamoylalanine (2.38 ppm), Mean (group mean): 10.919 | N-carbamoylalanine (3.31 ppm), Mean (group mean): 9.060 | N-isovalerylglycine + oxovalerate (0.92 ppm), Mean (group mean): 15.384 | TMA, Mean (group mean): 10.220 | acetate, Mean (group mean): 4.384 | allantoin, Mean (group mean): 21.272 | carnitine, Mean (group mean): 6.113 | choline, Mean (group mean): 2.053 | cis-aconitate, Mean (group mean): 9.014 | citrate (2.55 ppm), Mean (group mean): 31.737 | citrate (2.69 ppm), Mean (group mean): 28.801 | creatine+creatinine, Mean (group mean): 23.782 | creatine, Mean (group mean): 6.742 | creatinine, Mean (group mean): 11.494 | ethanolamine, Mean (group mean): 7.749 | formate, Mean (group mean): 0.205 | fumarate, Mean (group mean): 0.167 | galactose, Mean (group mean): 0.806 | glucose, Mean (group mean): 3.486 | glycine, Mean (group mean): 6.185 | hexanoylglycine + acids (0.88 ppm), Mean (group mean): 15.251 | hippurate (7.55 ppm), Mean (group mean): 4.857 | hippurate (7.64 ppm), Mean (group mean): 2.465 | hippurate (7.84 ppm), Mean (group mean): 5.092 | lactate, Mean (group mean): 7.122 | multiplet acids (1.6 ppm), Mean (group mean): 12.357 | putrescin, Mean (group mean): 8.544 | succinate, Mean (group mean): 12.532 | taurine (3.27 ppm), Mean (group mean): 20.714 | taurine (3.43 ppm), Mean (group mean): 17.197 | trigonelline (8.84 ppm), Mean (group mean): 0.310 | trigonelline (9.13 ppm), Mean (group mean): 0.125 | vinylacetylglycine, Mean (group mean): 3.494
